Source: ChEMBL document CHEMBL5647694, “Novel orally bioavailable EZH1/2 dual inhibitors with greater antitumor efficacy than an EZH2 selective inhibitor” (Cancer Sci, 2017)

How the values were obtained:
[1] = target: Protein kinase C iota type (Homo sapiens) (UniProt P41743); assay: Inhibition of N-terminal GST-fused human full length PKC-iota (1 to 587 residues ) expressed in baculovirus expression system using PKC peptide as substrate at 1 uM in presence of ATP by Mobility shift assay
[2] = target: Interleukin-1 receptor-associated kinase 1 (Homo sapiens) (UniProt P51617); assay: Inhibition of N-terminal GST-fused truncated human IRAK1 (194 to 712 residues) expressed in baculovirus expression system using SRPKtide as substrate at 1 uM in presence of ATP by IMAP assay
[3] = AUC (0 to 24 hrs) in BALB/c mouse at 6.3 mg/kg administered as single dose; format: ADME, organism-based; conditions: in vivo, route po
[4] = Cmax in BALB/c mouse at 6.3 mg/kg administered as single dose; format: ADME, organism-based; conditions: in vivo, route po
[5] = Toxicity in Crl:CD Sprague-Dawley rat assessed as basophil count in blood at 100 mg/kg, po administered daily for 14 days (reference value: 0.023+/-0.018 10^3/uL); format: organism-based; conditions: in vivo, 336 h, time 14 day
[6] = Toxicity in Crl:CD Sprague-Dawley rat assessed as hemoglobin level in blood at 100 mg/kg, po administered daily for 14 days (reference value: 13.5 +/-0.386 g/dL); format: organism-based; conditions: in vivo, 336 h, time 14 day
[7] = Toxicity in Crl:CD Sprague-Dawley rat assessed as alkaline phosphatase level in blood at 100 mg/kg, po administered daily for 14 days (reference value: 1340+/-199 U/L); format: organism-based; conditions: in vivo, 336 h, time 14 day
[8] = Toxicity in Crl:CD Sprague-Dawley rat assessed as total bilirubin level in blood at 100 mg/kg, po administered daily for 14 days (reference value: 0.003+/-0.005 mg/dL); format: organism-based; conditions: in vivo, 336 h, time 14 day
[9] = Toxicity in Crl:CD Sprague-Dawley rat assessed as MCHC level in blood at 100 mg/kg, po administered daily for 14 days (reference value: 32.7 +/-0.05%); format: organism-based; conditions: in vivo, 336 h, time 14 day
[10] = Toxicity in Crl:CD Sprague-Dawley rat assessed as monocyte count in blood at 100 mg/kg, po administered daily for 14 days (reference value: 0.203+/-0.09 10^3/uL); format: organism-based; conditions: in vivo, 336 h, time 14 day
ZR-75-30 = assay: Antitumor activity against human ZR-75-30 cells assessed as cell growth inhibition treated for 10 to 15 days; format: functional; conditions: time 10-15 day
NCI-H1694 = assay: Antitumor activity against human NCI-H1694 cells assessed as cell growth inhibition treated for 10 to 15 days; format: functional; conditions: time 10-15 day
HT = assay: Antitumor activity against human HT cells assessed as cell growth inhibition treated for 10 to 15 days; format: functional; conditions: time 10-15 day
[11] = Antitumor activity against human NCI-H841 cells assessed as cell growth inhibition treated for 10 to 15 days; format: functional; conditions: time 10-15 day
HuT78 = assay: Antitumor activity against human HuT78 cells assessed as cell growth inhibition treated for 10 to 15 days; format: functional; conditions: time 10-15 day
[12] = Antitumor activity against human CMK-86 cells assessed as cell growth inhibition treated for 10 to 15 days; format: functional; conditions: time 10-15 day
HCC1937 = assay: Antitumor activity against human HCC1937 cells assessed as cell growth inhibition treated for 10 to 15 days; format: functional; conditions: time 10-15 day
[13] = Antitumor activity against human MDA-PCa-2b cells assessed as cell growth inhibition treated for 10 to 15 days; format: functional; conditions: time 10-15 day
ZR-75-1 = assay: Antitumor activity against human ZR-75-1 cells assessed as cell growth inhibition treated for 10 to 15 days; format: functional; conditions: time 10-15 day
MDA-MB-157 = assay: Antitumor activity against human MDA-MB-157 cells assessed as cell growth inhibition treated for 10 to 15 days; format: functional; conditions: time 10-15 day
OCI-Ly7 = assay: Antitumor activity against human OCILY7 cells assessed as cell growth inhibition treated for 10 to 15 days; format: functional; conditions: time 10-15 day
SR = assay: Antitumor activity against human SR cells assessed as cell growth inhibition treated for 10 to 15 days; format: functional; conditions: time 10-15 day
BT-474 = assay: Antitumor activity against human BT-474 cells assessed as cell growth inhibition treated for 10 to 15 days; format: functional; conditions: time 10-15 day
[14] = target: Histone-lysine N-methyltransferase PRDM9 (Homo sapiens, UniProt Q9NQV7); assay: Inhibition of human PRDM9 using Histone H3 and [3H]SAM as substrate incubated for 30 mins to 1 hr by HotSpot kinase assay
MV4-11 = assay: Antitumor activity against human MV4-11 cells assessed as cell growth inhibition treated for 10 to 15 days; format: functional; conditions: time 10-15 day
HCC1419 = assay: Antitumor activity against human HCC1419 cells assessed as cell growth inhibition treated for 10 to 15 days; format: functional; conditions: time 10-15 day
VCaP = assay: Antitumor activity against human VCaP cells assessed as cell growth inhibition treated for 10 to 15 days; format: functional; conditions: time 10-15 day
[15] = Antitumor activity against human HCC1500 cells assessed as cell growth inhibition treated for 10 to 15 days; format: functional; conditions: time 10-15 day
NCI-H520 = assay: Antitumor activity against human NCI-H520 cells assessed as cell growth inhibition treated for 10 to 15 days; format: functional; conditions: time 10-15 day
NCI-H446 = assay: Antitumor activity against human NCI-H446 cells assessed as cell growth inhibition treated for 10 to 15 days; format: functional; conditions: time 10-15 day
ST486 = assay: Antitumor activity against human ST486 cells assessed as cell growth inhibition treated for 10 to 15 days; format: functional; conditions: time 10-15 day
LNCaP-Clone-FGC = assay: Antitumor activity against human LNCaP clone FGC cells assessed as cell growth inhibition treated for 10 to 15 days; format: functional; conditions: time 10-15 day
[16] = target: Serine/threonine-protein kinase WNK1 (Homo sapiens) (UniProt Q9H4A3); assay: Inhibition of N-terminal GST-fused human WNK1 catalytic domain (1 to 491 residues) expressed in baculovirus expression system using SPAKtide as substrate at 1 uM in presence of ATP by Mobility shift assay
UACC-893 = assay: Antitumor activity against human UACC-893 cells assessed as cell growth inhibition treated for 10 to 15 days; format: functional; conditions: time 10-15 day
[17] = target: Histone-lysine N-methyltransferase 2B (Homo sapiens, UniProt Q9UMN6); assay: Inhibition of human MLL4 using Core Histone and [3H]SAM as substrate incubated for 30 mins to 1 hr by HotSpot kinase assay
[18] = target: Histone-lysine N-methyltransferase, H3 lysine-79 specific (Homo sapiens, UniProt Q8TEK3); assay: Inhibition of human DOT1L using Nucleosomes and [3H]SAM as substrate incubated for 30 mins to 1 hr by HotSpot kinase assay
HPAC = assay: Antitumor activity against human HPAC cells assessed as cell growth inhibition treated for 10 to 15 days; format: functional; conditions: time 10-15 day
[19] = target: Ribosomal protein S6 kinase alpha-2 (Homo sapiens) (UniProt Q15349); assay: Inhibition of N-terminal GST-fused human full length RSK3 (1 to 733 residues) expressed in baculovirus expression system using S6K peptide(N-FL) as substrate at 1 uM in presence of ATP by Mobility shift assay
[20] = target: Serine/threonine-protein kinase D2 (Homo sapiens) (UniProt Q9BZL6); assay: Inhibition of N-terminal GST-fused full length human PKD2 (1 to 878 residues) expressed in baculovirus expression system using GS peptide as substrate at 1 uM in presence of ATP by Mobility shift assay

Chain of Histone-lysine N-methyltransferase, H3 lysine-79 specific (Q8TEK3 whole entry): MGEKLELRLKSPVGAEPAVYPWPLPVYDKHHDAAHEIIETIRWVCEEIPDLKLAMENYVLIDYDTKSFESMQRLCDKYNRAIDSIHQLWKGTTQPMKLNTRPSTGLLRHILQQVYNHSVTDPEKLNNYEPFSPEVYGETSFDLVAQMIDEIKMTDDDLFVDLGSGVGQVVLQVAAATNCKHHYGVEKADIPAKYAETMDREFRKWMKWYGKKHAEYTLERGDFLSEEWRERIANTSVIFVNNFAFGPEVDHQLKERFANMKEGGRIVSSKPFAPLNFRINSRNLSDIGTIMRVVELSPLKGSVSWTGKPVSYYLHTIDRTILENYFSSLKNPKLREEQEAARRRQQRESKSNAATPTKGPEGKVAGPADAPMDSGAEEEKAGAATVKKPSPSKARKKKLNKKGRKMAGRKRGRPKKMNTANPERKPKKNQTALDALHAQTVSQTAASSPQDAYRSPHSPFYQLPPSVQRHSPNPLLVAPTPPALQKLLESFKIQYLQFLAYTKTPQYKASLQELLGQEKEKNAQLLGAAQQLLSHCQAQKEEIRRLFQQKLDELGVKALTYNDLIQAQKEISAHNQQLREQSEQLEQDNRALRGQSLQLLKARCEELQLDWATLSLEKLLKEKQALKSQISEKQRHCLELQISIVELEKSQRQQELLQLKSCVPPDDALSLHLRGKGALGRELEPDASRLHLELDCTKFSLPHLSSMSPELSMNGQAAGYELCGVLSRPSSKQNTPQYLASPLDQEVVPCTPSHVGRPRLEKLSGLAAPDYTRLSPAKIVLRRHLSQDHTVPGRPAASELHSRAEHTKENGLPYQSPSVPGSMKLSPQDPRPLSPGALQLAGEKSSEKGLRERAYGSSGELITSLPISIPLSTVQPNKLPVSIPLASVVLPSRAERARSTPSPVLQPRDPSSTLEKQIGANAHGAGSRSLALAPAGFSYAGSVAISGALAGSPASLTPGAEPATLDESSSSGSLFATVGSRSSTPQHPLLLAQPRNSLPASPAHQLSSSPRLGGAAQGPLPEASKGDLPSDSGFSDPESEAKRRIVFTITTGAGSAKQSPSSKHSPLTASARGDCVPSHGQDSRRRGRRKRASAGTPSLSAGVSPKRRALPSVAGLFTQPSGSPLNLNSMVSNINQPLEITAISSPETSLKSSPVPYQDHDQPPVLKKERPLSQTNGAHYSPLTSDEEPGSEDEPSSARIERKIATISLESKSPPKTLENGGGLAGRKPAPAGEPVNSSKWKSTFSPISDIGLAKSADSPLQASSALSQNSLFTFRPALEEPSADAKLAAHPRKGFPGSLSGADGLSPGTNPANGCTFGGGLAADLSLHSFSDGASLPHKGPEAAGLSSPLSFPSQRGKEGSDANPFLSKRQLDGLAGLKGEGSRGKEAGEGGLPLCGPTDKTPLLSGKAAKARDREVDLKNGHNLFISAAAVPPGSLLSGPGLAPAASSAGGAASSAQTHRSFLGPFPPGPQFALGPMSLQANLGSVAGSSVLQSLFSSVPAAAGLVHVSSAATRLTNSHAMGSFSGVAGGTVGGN
Chain of Serine/threonine-protein kinase WNK1 (Homo sapiens) (Q9H4A3 whole entry, looked up, the tested form may be a part): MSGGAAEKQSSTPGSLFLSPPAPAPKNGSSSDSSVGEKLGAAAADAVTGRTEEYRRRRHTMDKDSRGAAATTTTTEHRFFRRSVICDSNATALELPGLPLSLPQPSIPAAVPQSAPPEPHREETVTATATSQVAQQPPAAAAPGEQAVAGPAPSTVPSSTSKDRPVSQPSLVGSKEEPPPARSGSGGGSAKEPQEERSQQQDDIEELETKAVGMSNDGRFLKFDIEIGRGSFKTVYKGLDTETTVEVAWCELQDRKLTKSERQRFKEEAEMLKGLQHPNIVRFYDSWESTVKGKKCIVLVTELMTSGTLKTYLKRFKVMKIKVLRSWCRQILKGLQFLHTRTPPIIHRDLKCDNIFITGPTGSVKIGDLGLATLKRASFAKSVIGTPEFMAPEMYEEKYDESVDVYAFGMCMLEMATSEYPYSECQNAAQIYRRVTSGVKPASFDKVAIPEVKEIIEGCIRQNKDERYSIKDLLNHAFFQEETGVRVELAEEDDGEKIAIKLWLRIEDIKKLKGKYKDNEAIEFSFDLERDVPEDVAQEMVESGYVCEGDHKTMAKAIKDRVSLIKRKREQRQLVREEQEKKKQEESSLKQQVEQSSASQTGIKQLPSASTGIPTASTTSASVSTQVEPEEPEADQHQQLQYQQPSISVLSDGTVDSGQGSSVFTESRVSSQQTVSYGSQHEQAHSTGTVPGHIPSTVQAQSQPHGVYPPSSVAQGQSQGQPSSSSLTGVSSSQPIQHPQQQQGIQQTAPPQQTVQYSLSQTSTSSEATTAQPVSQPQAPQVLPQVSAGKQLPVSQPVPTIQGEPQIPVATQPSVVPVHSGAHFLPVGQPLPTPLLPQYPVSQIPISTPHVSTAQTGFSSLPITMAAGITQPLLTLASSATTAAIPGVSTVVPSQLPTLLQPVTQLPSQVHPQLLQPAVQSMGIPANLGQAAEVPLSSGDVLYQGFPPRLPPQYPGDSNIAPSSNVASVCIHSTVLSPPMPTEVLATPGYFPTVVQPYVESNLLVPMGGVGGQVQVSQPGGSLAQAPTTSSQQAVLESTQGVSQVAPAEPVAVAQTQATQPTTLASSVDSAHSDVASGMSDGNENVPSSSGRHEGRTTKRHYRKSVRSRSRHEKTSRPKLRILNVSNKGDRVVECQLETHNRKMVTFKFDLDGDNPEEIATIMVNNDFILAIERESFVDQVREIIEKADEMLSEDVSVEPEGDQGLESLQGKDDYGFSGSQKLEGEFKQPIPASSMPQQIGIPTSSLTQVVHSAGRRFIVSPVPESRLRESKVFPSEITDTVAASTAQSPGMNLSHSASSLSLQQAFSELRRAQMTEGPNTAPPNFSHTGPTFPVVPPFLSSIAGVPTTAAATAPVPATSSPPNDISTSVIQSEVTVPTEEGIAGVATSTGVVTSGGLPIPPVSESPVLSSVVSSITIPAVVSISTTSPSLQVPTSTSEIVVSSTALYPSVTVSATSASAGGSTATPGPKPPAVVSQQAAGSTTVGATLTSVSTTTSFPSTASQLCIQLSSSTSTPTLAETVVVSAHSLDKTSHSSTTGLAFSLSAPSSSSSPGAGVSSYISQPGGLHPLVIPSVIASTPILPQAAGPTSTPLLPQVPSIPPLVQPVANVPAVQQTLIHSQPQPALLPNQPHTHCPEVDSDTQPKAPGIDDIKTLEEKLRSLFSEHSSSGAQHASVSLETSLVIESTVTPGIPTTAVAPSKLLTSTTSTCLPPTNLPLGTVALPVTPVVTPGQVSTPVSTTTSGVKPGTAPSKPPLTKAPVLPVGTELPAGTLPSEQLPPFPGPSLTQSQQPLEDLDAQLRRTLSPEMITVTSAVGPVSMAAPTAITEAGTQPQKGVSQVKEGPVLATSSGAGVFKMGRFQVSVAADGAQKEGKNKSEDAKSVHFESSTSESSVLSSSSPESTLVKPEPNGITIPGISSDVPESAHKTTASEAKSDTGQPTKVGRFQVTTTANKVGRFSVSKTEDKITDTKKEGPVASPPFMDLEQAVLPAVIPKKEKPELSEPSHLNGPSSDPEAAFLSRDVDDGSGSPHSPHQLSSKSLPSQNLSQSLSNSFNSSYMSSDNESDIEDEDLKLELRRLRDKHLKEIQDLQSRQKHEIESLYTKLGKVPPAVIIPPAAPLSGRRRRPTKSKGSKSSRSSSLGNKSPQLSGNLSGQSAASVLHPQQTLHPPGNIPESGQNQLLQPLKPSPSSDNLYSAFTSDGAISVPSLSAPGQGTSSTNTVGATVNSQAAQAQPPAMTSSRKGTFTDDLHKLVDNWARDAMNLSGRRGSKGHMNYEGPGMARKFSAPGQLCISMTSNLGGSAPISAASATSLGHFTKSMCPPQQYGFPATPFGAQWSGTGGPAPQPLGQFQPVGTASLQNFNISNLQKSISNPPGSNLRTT
Chain of Histone-lysine N-methyltransferase PRDM9 (Q9NQV7 whole entry): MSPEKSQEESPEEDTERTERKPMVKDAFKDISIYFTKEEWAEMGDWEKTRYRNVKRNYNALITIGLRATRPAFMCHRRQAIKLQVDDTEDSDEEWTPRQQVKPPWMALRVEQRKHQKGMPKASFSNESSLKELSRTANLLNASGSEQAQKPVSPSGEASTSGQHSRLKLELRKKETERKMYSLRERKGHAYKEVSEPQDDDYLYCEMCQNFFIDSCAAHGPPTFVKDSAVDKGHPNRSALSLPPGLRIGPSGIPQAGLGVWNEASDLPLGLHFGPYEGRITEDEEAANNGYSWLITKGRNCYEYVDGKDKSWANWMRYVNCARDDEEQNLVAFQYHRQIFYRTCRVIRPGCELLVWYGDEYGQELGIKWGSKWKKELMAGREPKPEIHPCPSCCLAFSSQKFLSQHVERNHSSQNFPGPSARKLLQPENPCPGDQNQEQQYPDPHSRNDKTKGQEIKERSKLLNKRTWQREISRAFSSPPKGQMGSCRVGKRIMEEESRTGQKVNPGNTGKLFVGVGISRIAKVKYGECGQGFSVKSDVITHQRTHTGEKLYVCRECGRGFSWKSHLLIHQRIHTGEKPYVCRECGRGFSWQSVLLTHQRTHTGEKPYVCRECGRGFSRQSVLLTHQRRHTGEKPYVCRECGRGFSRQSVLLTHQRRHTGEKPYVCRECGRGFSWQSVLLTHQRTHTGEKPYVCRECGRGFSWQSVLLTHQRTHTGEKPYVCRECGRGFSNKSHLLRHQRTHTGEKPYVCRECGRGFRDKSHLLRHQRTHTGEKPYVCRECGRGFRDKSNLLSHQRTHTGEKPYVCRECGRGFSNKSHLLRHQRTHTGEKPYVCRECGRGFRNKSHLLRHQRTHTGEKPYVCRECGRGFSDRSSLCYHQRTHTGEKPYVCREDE

Cc1cc(C)c(CNC(=O)c2cc(Br)c3c(c2C)O[C@@](C)([C@H]2CC[C@H](N(C)C)CC2)O3)c(=O)[nH]1
inhibition [1]: 22.3%
inhibition [2]: -4.5%
AUC(0-t) [3]: 1.6 µM·h
Cmax [4]: 450 nM
Activity [5]: 0.01 10^3 /uL
Activity [6]: 13 g/dL
Activity [7]: 1120 U/L
Activity [8]: 0.028 mg/dL
Activity [9]: 32.5%
Activity [10]: 0.105 10^3 /uL

Cc1cc(C)c(CNC(=O)c2cc(Cl)c3c(c2C)O[C@@](C)([C@H]2CC[C@H](N(C)C)CC2)O3)c(=O)[nH]1 [VALEMETOSTAT]
GI50 (ZR-75-30): > 1 µM
GI50 (NCI-H1694): > 1 µM
GI50 (HT): 0.00174 µM
GI50 [11]: 0.134 µM
GI50 (HuT78): > 1 µM
GI50 [12]: 0.444 µM
GI50 (HCC1937): > 1 µM
GI50 [13]: 0.0125 µM
GI50 (ZR-75-1): 0.138 µM
GI50 (MDA-MB-157): > 1 µM
GI50 (OCI-Ly7): 0.0592 µM
GI50 (SR): 0.388 µM
GI50 (BT-474): > 1 µM
IC50 [14]: 100 µM
GI50 (MV4-11): 0.00319 µM
GI50 (HCC1419): > 1 µM
GI50 (VCaP): 0.0507 µM
GI50 [15]: 0.021 µM
GI50 (NCI-H520): > 1 µM
GI50 (NCI-H446): 0.124 µM
GI50 (ST486): > 1 µM
GI50 (LNCaP-Clone-FGC): 0.00553 µM
inhibition [16]: 3.4%
GI50 (UACC-893): > 1 µM
IC50 [17]: 100 µM
IC50 [18]: 100 µM
GI50 (HPAC): > 1 µM
inhibition [19]: -3.9%
inhibition [20]: -4.7%
